From DBAASP
Converted amounts (≈) assume the structure as drawn. Values belong to the compound of their own block, whether it stands above or below them.

Legend:
Assay in all cases: ≥ marks a high value that may be exact or a test limit, other limits are often not marked, values filed in µg/mL are converted to µM
[1] = test system: Escherichia coli ATCC 25922
Pseudomonas aeruginosa = test system: Pseudomonas aeruginosa
Bacillus pumilus = test system: Bacillus pumilus
Shigella dysenteriae = test system: Shigella dysenteriae
[2] = test system: Acinetobacter calcoaceticus
[3] = test system: Staphylococcus aureus ATCC 2592
[4] = test system: Candida albicans ATCC 2002
Bacillus cereus = test system: Bacillus cereus
[5] = test system: Enterococcus faecium A634
Bacillus subtilis BR151 = test system: Bacillus subtilis BR151
[6] = test system: Staphylococcus aureus 1206
Escherichia coli JM109 = test system: Escherichia coli JM109
Pasteurella multocida = test system: Pasteurella multocida
Pseudomonas haemolytica = test system: Pseudomonas haemolytica
Listeria innocua = test system: Listeria innocua
[7] = test system: Staphylococcus aureus ATCC 29213
Streptococcus uberis = test system: Streptococcus uberis
[8] = test system: Staphylococcus aureus ATCC 25923
[9] = test system: Staphylococcus epidermidis
Micrococcus luteus = test system: Micrococcus luteus
Leuconostoc lactis = test system: Leuconostoc lactis

MIC [1]: 5.34 µM (≈ 7.49 µg/mL) | MIC (Pseudomonas aeruginosa): 3.56 µM (≈ 5 µg/mL) | MIC (Bacillus pumilus): 5.34 µM (≈ 7.49 µg/mL) | MIC (Shigella dysenteriae): 14.2 µM (≈ 20 µg/mL) | MIC [2]: ≥ 42.7 µM | MIC [3]: 5.34 µM (≈ 7.49 µg/mL) | MIC [4]: 3.56 µM (≈ 5 µg/mL) | MIC (Bacillus cereus): ≥ 53.4 µM
SMILES: CC[C@H](C)[C@H](NC(=O)[C@@H]1CCCN1C(=O)[C@H](Cc1ccccc1)NC(=O)[C@@H](N)Cc1ccccc1)C(=O)N[C@H](C(=O)NCC(=O)N[C@@H](CCCCN)C(=O)N[C@@H](CC(C)C)C(=O)N[C@@H](CC(C)C)C(=O)N[C@@H](CO)C(=O)NCC(=O)N[C@@H](CC(C)C)C(=O)N[C@@H](CC(C)C)C(N)=O)C(C)C [FFPIVGKLLSGLL]

MIC [5]: 20.2 µM (≈ 50 µg/mL) | MIC (Bacillus subtilis BR151): 1.21 µM (≈ 3 µg/mL) | MIC [6]: 20.2 µM (≈ 50 µg/mL) | MIC (Escherichia coli JM109): 2.42 µM (≈ 6 µg/mL)
SMILES: CCC(C)[C@H](NC(=O)CN)C(=O)NCC(=O)N[C@@H](CCCCN)C(=O)N[C@@H](Cc1ccccc1)C(=O)N[C@@H](CC(C)C)C(=O)N[C@@H](Cc1cnc[nH]1)C(=O)N[C@@H](C)C(=O)N[C@@H](C)C(=O)N[C@@H](CCCCN)C(=O)N[C@@H](CCCCN)C(=O)N[C@@H](Cc1ccccc1)C(=O)N[C@@H](C)C(=O)N[C@@H](CCCCN)C(=O)N[C@@H](C)C(=O)N[C@@H](Cc1ccccc1)C(=O)N[C@H](C(=O)N[C@@H](C)C(=O)N[C@@H](CCC(=O)O)C(=O)N[C@H](C(=O)N[C@@H](CCSC)C(=O)N[C@@H](CC(N)=O)C(=O)N[C@@H](CO)C(N)=O)C(C)CC)C(C)C (stereo partly specified) [GIGKFLHAAKKFAKAFVAEIMNS]

MIC (Pasteurella multocida): 9.64 µM (≈ 25 µg/mL) | MIC (Listeria innocua): 19.3 µM (≈ 50 µg/mL) | MIC [7]: 4.63 µM (≈ 12 µg/mL) | MIC (Streptococcus uberis): 9.64 µM (≈ 25 µg/mL) | MIC [8]: 2.31 µM (≈ 6 µg/mL) | MIC [9]: 4.63 µM (≈ 12 µg/mL) | MIC (Micrococcus luteus): 9.64 µM (≈ 25 µg/mL) | MIC (Leuconostoc lactis): 1.16 µM (≈ 3 µg/mL)
SMILES: CC[C@H](C)[C@H](NC(=O)[C@@H](NC(=O)[C@@H]1CCCN1C(=O)[C@@H](NC(=O)[C@@H](NC(=O)[C@H](Cc1cnc[nH]1)NC(=O)[C@@H]1CCCN1C(=O)[C@H](CC(C)C)NC(=O)[C@@H](NC(=O)[C@H](Cc1cnc[nH]1)NC(=O)[C@H](CCCCN)NC(=O)[C@H](C)NC(=O)[C@@H](NC(=O)[C@H](C)NC(=O)CNC(=O)[C@H](CC(C)C)NC(=O)[C@@H](NC(=O)[C@H](CO)NC(=O)[C@H](Cc1ccccc1)NC(=O)[C@H](CC(C)C)NC(=O)CN)C(C)C)C(C)C)C(C)C)C(C)C)C(C)C)C(C)C)C(=O)N[C@@H](C)C(=O)N[C@@H](CCC(=O)O)C(=O)N[C@@H](CCCCN)C(=O)N[C@@H](CC(C)C)C(N)=O [GLFSVLGAVAKHVLPHVVPVIAEKL]
MIC (Pseudomonas haemolytica): 19.3 µM (≈ 50 µg/mL)
